Measured values reported in patent publication US9932646B2, “Detection and use of antiviral resistance mutations” (ABL SA, priority 2006, dated 2018).
Entries after “also recorded” stand apart in the source; their conditions may differ. Structures can show the parent of a compound that is named as a salt.

Assays:
HIV = settings: cited from earlier work
HBV [1] = settings: cited from earlier work
[2] = ALT in patients during antiviral therapy; format: in vivo, human; settings: Patient G, ADV therapy
HBV [3] = experiment: Clinical response / resistance of HBV patients to nucleoside or nucleotide analog treatment; format: in vivo, human
From the text: The present invention is predicated in part on the identification and isolation of nucleoside or nucleotide analog-resistant variants of HBV following treatment of patients with either ADV or LMV or ETV or more particularly ADV and LMV or TFV and LMV, or ETV and optionally one or more other nucleoside analogs or nucleotide analogs or other anti-HBV agents such as TFV, LdT, or FTC. […] Reference herein to “decreased” or “reduced” in relation to sensitivity to ADV and/or LMV and/or FTC and/or TFV and/or ETV includes and encompasses a complete or substantial resistance to the nucleoside or nucleotide analog or other anti-HBV agents as well as partial resistance and includes a replication rate or replication efficiency which is more than a wild-type in the presence of a nucleoside or nucleotide analog or other anti-HBV agents. In one aspect, this is conveniently measured by an increase in viral load during treatment, or alternatively, there is no substantial decrease in HBV DNA viral load from pre-treatment HBV DNA levels during treatment (i.e., non-response to treatment).
Hepatitis B surface antigen (HBsAg), hepatitis B e antigen (HBeAg), anti-HBe and hepatitis B core antigen (HBcAg) specific IgG and IgM were measured using commercially available immunoassays (Abbott Laboratories, North Chicago, Ill., USA). Hepatitis B viral DNA levels were measured using a capture hybridization assay according to the manufacturer's directions (Digene Hybrid Capture II, Digene Diagnostics Inc., Beltsville, Md.). The manufacturers stated cut-off for detecting HBV viremia in clinical specimens was 0.7×10^6 copies/ml or 2.5 pg/ml, [Hendricks et al, Am J Clin Pathol 104:537-46, 1995]. HBV DNA levels can also be quantitated using other commercial kits such as Cobas amplification HBV monitor kit (Roche). […]
The specific amplified products were purified using PCR purification columns from MO BIO Laboratories Inc (La Jolla, Calif.) and directly sequenced using Big Dye terminator Cycle sequencing Ready Reaction Kit (Perkin Elmer, Cetus Norwalk, Conn.). […]

HBV [4] = settings: cited from earlier work; remark: listed apart in the source

With `Nc1nc(=O)n([C@@H]2CS[C@H](CO)O2)cc1F` [FTC, (−)-β-L-2′-3′-dideoxy-5-fluoro-3′-thiacydidine] as the molecule, how does the “activity against HIV” value (HIV) read?
Its value is “activity”.

And the “activity against HBV” value (HBV [1])?
Its value is “activity”.

For `Cc1cn([C@@H]2C[C@@H](O)[C@H](CO)O2)c(=O)[nH]c1=O` [LdT, beta-Lthymidine], which “activity against HBV” value (HBV [1]) is on record?
The value was “activity”.

Which “activity against HBV” value (HBV [1]) does the source give for `Nc1ncnc2c1ncn2C1CC(O)C(CO)O1` [LdA, beta-L-2′-deoxyadenosine] here?
The value was “activity”.

Which “activity against HBV” value (HBV [1]) does the source give for `Nc1ccn([C@@H]2C[C@@H](O)[C@H](CO)O2)c(=O)n1` [LdC, beta-L-2′-deoxycytidine] here?
Its value is “activity”.

Which ALT [2] does the source give for `CC(C)(C)C(=O)OCOP(=O)(COCCn1cnc2c(N)ncnc21)OCOC(=O)C(C)(C)C` [ADV, adefovir dipivoxil] here?
Its ALT is 467 IU/ml.

What about the response to treatment (HBV [3]; human, in vivo) of the same molecule?
The response to treatment was “resistant; also recorded: did not respond”.

What about the “clinical activity against both wild-type and lamivudine-resistant strains of HBV” value (HBV [4]; in vivo) of the same molecule?
Its value is “demonstrated clinical activity”.

And the “mean decrease in viremia” value (HBV [4]; phase II studies, 30 mg daily dose, over 12 weeks)?
Its value is 4 log10.

What about the “inhibition of HBV replication” value (HBV [1]) of the same molecule?
The value was “potent inhibitor”.

For `CC(C)OC(=O)OCOP(=O)(CO[C@H](C)Cn1cnc2c(N)ncnc21)OCOC(=O)OC(C)C` [TFV, tenofovir disoproxil fumarate], which “activity against HIV” value (HIV) is on record?
Its value is “antiviral activity”.

And the “activity against HBV” value (HBV [1])?
The value was “antiviral activity”.

And the “inhibition of HBV replication” value (HBV [1])?
The value was “potent inhibitor”.

For `C=C1[C@H](CO)[C@@H](O)C[C@@H]1n1cnc2c(=O)[nH]c(N)nc21` [ETV, entecavir], which response to treatment (HBV [3]; Patient H, sequential then combination treatment) is on record?
Its response to treatment is “resistant”.

What about the response to treatment (HBV [3]; Patient J, previously treated with LMV, then ADV, then ETV) of the same molecule?
The response to treatment was “did not respond”.
